Legend:
[1] = system: Human brain vascular endothelial cells (hCMEC/D3); experiment: Cell viability of human brain vascular endothelial cells under hydrogen peroxide stress; assay type: cell-based; settings: 450 μM hydrogen peroxide, 6 hours; PrestoBlue; stressed cells without test compound about 0.2; FIG. 17
Description: Human brain vascular endothelial cells (hCMEC/D3, Sigma) were seeded to 5,000 cells/cm^2 on a 96-well plate (Falcon cell culture 96-well multi-well plate, with flat bottom lid) coated with 0.1 mg/ml collagen type 1 (Sigma-Aldrich), and cultured at 37° C. for 24 hours with 5% CO2 using Endothelial Cell Growth Medium (PromoCell, Germany). Bismuth citrate, bismuth subnitrate, bismuth tartrate, or zinc sulfate dissolved in saline, and hydrogen peroxide at a final concentration of 450 μM were added to the medium and incubated for 6 hours to simultaneously stress the cells and treat them with test compounds. The cell viability after loading stress was measured using PrestoBlue (registered trademark) Cell Viability Reagent (Life Technologies).
The cell viability is illustrated in FIG. 17 when the cell viability of the control without hydrogen peroxide stress is 1 and the cell-free is 0. […] Note that the survival rate of the cells subjected to hydrogen peroxide stress and not added the test compound was about 0.2.

[2] = system: spinal cord crush injury rats; experiment: Histological evaluation in spinal cord crush injury model; assay type: in vivo, Lewis rats; settings: 8 weeks after injury, vs vehicle; for reactive astrocyte area (GFAP positive area): FIG. 6
Description: Crush injuries were created in the fifth cervical cord (C5) of Lewis rats (female, 8 to 14 weeks old, n=14 to 18/group) under anesthesia by applying a pressure of 200 kdyn using an IH impactor. For seven consecutive days from the day of injury creation, 380 to 420 μL of the test compound dissolved in saline or DMSO, or vehicle was intraperitoneally administered. The daily doses were 20 mg/kg body weight of papaverine, 1 mg/kg body weight of mubritinib, and 1 mg/kg body weight of brexpiprazole. After the rats were kept for 8 weeks from injury creation, histological evaluation and sensory function evaluation for pathological conditions at the chronic stage of the spinal cord injury were performed. After perfusion and fixation of the rats in the same manner as in Example 3, the 2 cm long spinal cord centering the injury site was dissected. The dissected spinal cords were immersed in PBS containing 30% sucrose for overnight and then transected horizontally to prepare frozen sections having a thickness of 30 μm. After washing the sections with TBS, blocking was performed in a blocking buffer (TBS containing 5% normal horse serum and 0.25% Triton X-100) for 1 hour at room temperature. After washing with PBS, the sections were reacted with a primary antibody at 4° C. overnight. As the primary antibody, purified anti-Glial Fibrillary Acidic Protein (GFAP) Antibody (Biolegend) and Anti-NeuN Antibody, clone A60 (Millipore) were diluted with TBS containing 5% normal horse serum and 0.25% Triton X-100 at 1:1000 and at 1:500, respectively, and used. After washing with TBS, the sections were reacted with a secondary antibody at room temperature for 3 hours. As the secondary antibody, both Alexa Fluor 594 donkey anti-mouse IgG (Jackson ImmunoResearch) and Alexa Fluor 594 donkey anti-chicken IgG (Jackson ImmunoResearch) were diluted with TBS containing 3% normal horse serum and 0.25% Triton X-100 at 1:500, and used. After washing with TBS, the sections were observed using BZ-X710 (KEYENCE) to obtain fluorescent images. For the section of the central part of the spinal cord of the rat, the cavity area of the injured part, the area of the region immunostained with the GFAP antibody, and the number of cells immunostained with the NeuN antibody present on the lines 1.5 mm rostal and caudal from the center of the injury were measured. GFAP is a marker for reactive astrocytes and NeuN is a marker for neurons. Immediately after creating crush injuries in the fifth cervical cord (C5) of Lewis rats (female, 8 to 14 weeks old, n=8/group) under anesthesia in the same manner as in Example 4, 500 mg/kg of bismuth subnitrate dissolved in saline, or vehicle (saline) was intraperitoneally administered. After the rats were kept for 8 weeks from injury creation, histological evaluation and sensory function evaluation were performed for pathological conditions at the chronic stage of the spinal cord injury. In the same manner as in Example 4, for the section of the central part of the spinal cord of the rat, the reactive astrocyte area, the cavity area of the injured part, and the number of remaining neurons present on the lines 1.5 mm rostal and caudal from the center of the injury were measured.

[3] = system: cerebral cortex injury mice; experiment: IgG leakage in cerebral cortex injury model; assay type: in vivo, C57BL/6 mice; settings: i.p. day before and on day of injury; bismuth subnitrate 500, papaverine 20 mg/kg; vs vehicle; FIG. 16
Description: Protection of the BBSCB function in traumatic brain injury by papaverine, mubritinib, brexpiprazole, and bismuth subnitrate was evaluated by observing suppression of IgG leakage from the injured site using the following method. C57BL/6 mice (male, 8 to 13 weeks old, n=3 to 4/group) were intraperitoneally administered 200 μL of the test compound dissolved in saline or DMSO, or vehicle. The doses were 20 mg/kg body weight of papaverine, 1 mg/kg body weight of mubritinib, 1 mg/kg body weight of brexpiprazole, and 500 mg/kg body weight of bismuth subnitrate. On the next day after administration, injuries were created in the left cerebral hemisphere cortex of the mice under anesthesia by a wire-knife transection method. The mice were immobilized in a stereotaxic frame, and the left lateral 1 mm portion from the bregma of the cranial bone was opened with a microdrill. A wire-knife was inserted into the lateral 1.0 mm from the bregma and 0.5 mm deep in the left cerebral hemisphere, and the wire was extended caudally and pulled up to create the injury. […] For evaluation of the IgG-stained area, taken images were binarized into black and white using Photoshop CS3 (Adobe, CA, USA), and then quantified using Image J (Schneider et al., 2012). […] All quantitative evaluations were performed with the slides blinded. […]

[4] = system: spinal cord crush injury rats; experiment: Sensory function evaluation (pain stimulus response time) in spinal cord crush injury model; assay type: in vivo, Lewis rats; settings: single i.p. dose 500 mg/kg immediately after C5 crush injury; vs vehicle; FIG. 13
Description: Crush injuries were created in the fifth cervical cord (C5) of Lewis rats (female, 8 to 14 weeks old, n=14 to 18/group) under anesthesia by applying a pressure of 200 kdyn using an IH impactor. For seven consecutive days from the day of injury creation, 380 to 420 μL of the test compound dissolved in saline or DMSO, or vehicle was intraperitoneally administered. The daily doses were 20 mg/kg body weight of papaverine, 1 mg/kg body weight of mubritinib, and 1 mg/kg body weight of brexpiprazole. After the rats were kept for 8 weeks from injury creation, histological evaluation and sensory function evaluation for pathological conditions at the chronic stage of the spinal cord injury were performed. […] Immediately after creating crush injuries in the fifth cervical cord (C5) of Lewis rats (female, 8 to 14 weeks old, n=8/group) under anesthesia in the same manner as in Example 4, 500 mg/kg of bismuth subnitrate dissolved in saline, or vehicle (saline) was intraperitoneally administered. After the rats were kept for 8 weeks from injury creation, histological evaluation and sensory function evaluation were performed for pathological conditions at the chronic stage of the spinal cord injury.

[5] = system: spinal cord crush injury rats; experiment: Walking function analysis (DigiGait) in spinal cord crush injury model; assay type: in vivo, Lewis rats; settings: single i.p. dose 500 mg/kg, 8 weeks after injury
Description: Immediately after creating crush injuries in the fifth cervical cord (C5) of Lewis rats (female, 8 to 14 weeks old, n=8/group) under anesthesia in the same manner as in Example 4, 500 mg/kg of bismuth subnitrate dissolved in saline, or vehicle (saline) was intraperitoneally administered. After the rats were kept for 8 weeks from injury creation, histological evaluation and sensory function evaluation were performed for pathological conditions at the chronic stage of the spinal cord injury.
The ground contacting area (the Paw Area) of each leg and the maximum possible walking speed were measured in rats before and 8 weeks after spinal cord injury creation using the DigiGait walking analysis system for small animals (Bioresearch Center Co., Ltd.) according to the manual. […] All rats before spinal cord injury creation were able to walk at a treadmill speed of 20 cm/sec. In the vehicle-administered group, the number of rats that were able to walk at a speed of 15 cm/sec or faster decreased to two individuals, whereas in the bismuth subnitrate-administered group, 6 individuals were able to walk at a speed of 15 cm/sec or faster (FIG. 15).

[6] = i.p. daily for 7 days from C5 crush injury, papaverine 20, mubritinib 1, brexpiprazole 1 mg/kg

Row | Compound | cell protective effect on hCMEC/D3 (cell viability) compared with zinc sulfate [1] | reactive astrocyte area (GFAP positive area) [2, 6] | leakage of IgG from the injured site of the cerebral cortex [3] | other results
1 | O=C([O-])CC(O)(CC(=O)[O-])C(=O)[O-].O=C([O-])CC(O)(CC(=O)[O-])C(=O)[O-].[Bi+3].[K+].[K+].[K+] [Bismuth subcitrate, bismuth subcitrate] | significantly higher | – | – | –
2 | O=c1ccc2ccc(OCCCCN3CCN(c4cccc5sccc45)CC3)cc2[nH]1 [brexpiprazole, 7-[4-[4-(1-benzothiophen-4-yl)piperazin-1-yl]butoxy]-1H-quinolin-2-one] | – | significantly reduced | – | –
3 | bismuth tartrate | significantly higher | – | – | –
4 | COc1ccc(Cc2nccc3cc(OC)c(OC)cc23)cc1OC [papaverine, 1-[(3,4-dimethoxyphenyl)methyl]-6,7-dimethoxyisoquinoline] | – | significantly reduced | significantly suppressed | cavity area of the injured part ([2]; i.p. daily for 7 days from C5 crush injury, papaverine 20, mubritinib 1, brexpiprazole 1 mg/kg, FIG. 7): significantly reduced; number of remaining neurons (NeuN-positive cells) ([2]; i.p. daily for 7 days from C5 crush injury, papaverine 20, mubritinib 1, brexpiprazole 1 mg/kg, FIG. 8): significantly increased
5 | O=[N+]([O-])[O-].O=[N+]([O-])[O-].O=[N+]([O-])[O-].O=[N+]([O-])[O-].[Bi+3].[Bi+3].[Bi+3].[Bi+3].[Bi+3].[O-2].[OH-].[OH-].[OH-].[OH-].[OH-].[OH-].[OH-].[OH-].[OH-] [bismuth subnitrate] | significantly higher | – | significantly suppressed | response time of the forelimbs to pain stimulus [4]: significantly longer; cavity area of the injured part ([2]; single i.p. dose 500 mg/kg immediately after C5 crush injury, FIG. 11): significantly reduced; number of remaining neurons, rostral side and caudal side of the injured part ([2]; single i.p. dose 500 mg/kg immediately after C5 crush injury, FIG. 12): increased both on the rostral side and the caudal side; number of rats able to walk at a speed of 15 cm/sec or faster ([5]; n=8/group, vehicle group two individuals, FIG. 15): 6 individuals; ground contacting area (the Paw Area) on one side ([5]; vs vehicle, FIG. 14): significantly increased
